According to ChEMBL document CHEMBL1157122, “The contribution of a 2-amino group on receptor tyrosine kinase inhibition and antiangiogenic activity in 4-anilinosubstituted pyrrolo[2,3-d]pyrimidines” (Bioorg Med Chem Lett, 2010):

Tests used:
[1] = target: Platelet-derived growth factor receptor beta (Homo sapiens, UniProt P09619); experiment: Inhibition of PDGFRbeta
A-431 = experiment: cells; settings: Homo sapiens
[2] = target: T1, Epidermal growth factor receptor (Homo sapiens, UniProt P00533); experiment: cell-based
T1 sequence (P00533 whole entry): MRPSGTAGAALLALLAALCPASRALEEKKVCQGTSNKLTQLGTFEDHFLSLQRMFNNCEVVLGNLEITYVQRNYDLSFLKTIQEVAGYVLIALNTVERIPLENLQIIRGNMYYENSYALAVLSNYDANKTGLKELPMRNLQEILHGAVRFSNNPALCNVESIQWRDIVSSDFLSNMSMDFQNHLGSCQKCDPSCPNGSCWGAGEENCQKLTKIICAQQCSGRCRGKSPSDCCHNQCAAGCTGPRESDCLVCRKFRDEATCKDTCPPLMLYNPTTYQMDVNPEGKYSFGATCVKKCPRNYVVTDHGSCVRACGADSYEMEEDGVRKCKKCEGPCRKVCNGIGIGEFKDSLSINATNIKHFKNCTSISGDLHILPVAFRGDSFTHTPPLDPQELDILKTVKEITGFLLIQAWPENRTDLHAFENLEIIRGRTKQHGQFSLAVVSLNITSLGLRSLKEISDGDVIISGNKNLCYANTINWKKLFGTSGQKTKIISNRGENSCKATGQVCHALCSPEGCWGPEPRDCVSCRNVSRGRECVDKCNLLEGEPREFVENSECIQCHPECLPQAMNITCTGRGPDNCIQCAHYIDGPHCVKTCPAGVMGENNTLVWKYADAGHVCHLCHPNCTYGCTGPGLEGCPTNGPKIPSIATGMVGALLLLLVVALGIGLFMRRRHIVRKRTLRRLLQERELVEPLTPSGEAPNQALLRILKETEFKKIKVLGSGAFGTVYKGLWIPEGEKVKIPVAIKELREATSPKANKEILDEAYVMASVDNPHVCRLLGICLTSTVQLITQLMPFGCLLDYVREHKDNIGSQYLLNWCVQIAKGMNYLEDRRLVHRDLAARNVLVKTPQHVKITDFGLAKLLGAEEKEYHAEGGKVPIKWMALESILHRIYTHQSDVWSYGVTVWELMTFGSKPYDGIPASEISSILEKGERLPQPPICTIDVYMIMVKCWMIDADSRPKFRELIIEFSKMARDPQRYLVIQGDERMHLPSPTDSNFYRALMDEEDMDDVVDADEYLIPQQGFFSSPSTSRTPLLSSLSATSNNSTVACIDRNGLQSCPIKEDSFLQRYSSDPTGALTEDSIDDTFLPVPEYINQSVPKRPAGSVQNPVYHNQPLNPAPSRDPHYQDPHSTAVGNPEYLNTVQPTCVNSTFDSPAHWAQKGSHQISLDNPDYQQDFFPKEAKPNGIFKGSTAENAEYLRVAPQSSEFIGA

[3] = target: Vascular endothelial growth factor receptor 1 (Homo sapiens, UniProt P17948); experiment: cell-based
Sequence of Vascular endothelial growth factor receptor 1 (P17948 whole entry): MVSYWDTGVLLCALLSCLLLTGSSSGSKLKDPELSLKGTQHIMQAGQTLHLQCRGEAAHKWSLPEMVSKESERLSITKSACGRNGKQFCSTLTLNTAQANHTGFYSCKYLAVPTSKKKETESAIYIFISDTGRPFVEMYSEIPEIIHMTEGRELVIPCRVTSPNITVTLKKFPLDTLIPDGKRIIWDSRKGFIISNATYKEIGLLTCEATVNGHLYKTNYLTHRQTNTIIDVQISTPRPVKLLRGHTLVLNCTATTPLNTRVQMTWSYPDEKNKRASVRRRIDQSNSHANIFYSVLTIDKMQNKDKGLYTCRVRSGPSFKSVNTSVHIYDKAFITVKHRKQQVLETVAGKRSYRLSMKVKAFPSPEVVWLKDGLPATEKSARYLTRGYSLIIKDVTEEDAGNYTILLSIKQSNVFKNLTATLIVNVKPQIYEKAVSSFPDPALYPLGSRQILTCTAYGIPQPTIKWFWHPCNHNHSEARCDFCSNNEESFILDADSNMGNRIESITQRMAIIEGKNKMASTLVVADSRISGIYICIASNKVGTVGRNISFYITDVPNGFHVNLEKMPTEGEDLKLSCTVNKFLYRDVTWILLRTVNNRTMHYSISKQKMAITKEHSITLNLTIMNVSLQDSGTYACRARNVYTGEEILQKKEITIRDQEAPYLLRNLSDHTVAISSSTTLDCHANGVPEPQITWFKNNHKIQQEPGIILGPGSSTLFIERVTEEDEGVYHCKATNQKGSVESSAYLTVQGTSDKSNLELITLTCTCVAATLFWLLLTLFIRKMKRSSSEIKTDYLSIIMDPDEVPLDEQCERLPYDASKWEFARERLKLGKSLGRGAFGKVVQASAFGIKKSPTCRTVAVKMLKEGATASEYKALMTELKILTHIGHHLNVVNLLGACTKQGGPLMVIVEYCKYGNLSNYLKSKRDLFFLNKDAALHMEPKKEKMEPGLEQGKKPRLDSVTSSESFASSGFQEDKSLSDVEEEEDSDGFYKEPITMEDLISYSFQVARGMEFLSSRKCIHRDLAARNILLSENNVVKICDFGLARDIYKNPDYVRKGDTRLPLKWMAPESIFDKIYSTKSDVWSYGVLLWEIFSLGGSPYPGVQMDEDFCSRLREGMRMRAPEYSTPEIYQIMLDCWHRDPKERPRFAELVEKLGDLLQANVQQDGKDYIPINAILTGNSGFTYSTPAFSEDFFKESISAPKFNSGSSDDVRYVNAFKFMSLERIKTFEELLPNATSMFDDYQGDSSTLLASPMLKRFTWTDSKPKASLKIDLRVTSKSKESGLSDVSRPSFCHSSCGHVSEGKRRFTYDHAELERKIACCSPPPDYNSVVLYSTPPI

[4] = target: T2, Vascular endothelial growth factor receptor 2 (Homo sapiens, UniProt P35968); experiment: cell-based
T2 sequence (P35968 whole entry): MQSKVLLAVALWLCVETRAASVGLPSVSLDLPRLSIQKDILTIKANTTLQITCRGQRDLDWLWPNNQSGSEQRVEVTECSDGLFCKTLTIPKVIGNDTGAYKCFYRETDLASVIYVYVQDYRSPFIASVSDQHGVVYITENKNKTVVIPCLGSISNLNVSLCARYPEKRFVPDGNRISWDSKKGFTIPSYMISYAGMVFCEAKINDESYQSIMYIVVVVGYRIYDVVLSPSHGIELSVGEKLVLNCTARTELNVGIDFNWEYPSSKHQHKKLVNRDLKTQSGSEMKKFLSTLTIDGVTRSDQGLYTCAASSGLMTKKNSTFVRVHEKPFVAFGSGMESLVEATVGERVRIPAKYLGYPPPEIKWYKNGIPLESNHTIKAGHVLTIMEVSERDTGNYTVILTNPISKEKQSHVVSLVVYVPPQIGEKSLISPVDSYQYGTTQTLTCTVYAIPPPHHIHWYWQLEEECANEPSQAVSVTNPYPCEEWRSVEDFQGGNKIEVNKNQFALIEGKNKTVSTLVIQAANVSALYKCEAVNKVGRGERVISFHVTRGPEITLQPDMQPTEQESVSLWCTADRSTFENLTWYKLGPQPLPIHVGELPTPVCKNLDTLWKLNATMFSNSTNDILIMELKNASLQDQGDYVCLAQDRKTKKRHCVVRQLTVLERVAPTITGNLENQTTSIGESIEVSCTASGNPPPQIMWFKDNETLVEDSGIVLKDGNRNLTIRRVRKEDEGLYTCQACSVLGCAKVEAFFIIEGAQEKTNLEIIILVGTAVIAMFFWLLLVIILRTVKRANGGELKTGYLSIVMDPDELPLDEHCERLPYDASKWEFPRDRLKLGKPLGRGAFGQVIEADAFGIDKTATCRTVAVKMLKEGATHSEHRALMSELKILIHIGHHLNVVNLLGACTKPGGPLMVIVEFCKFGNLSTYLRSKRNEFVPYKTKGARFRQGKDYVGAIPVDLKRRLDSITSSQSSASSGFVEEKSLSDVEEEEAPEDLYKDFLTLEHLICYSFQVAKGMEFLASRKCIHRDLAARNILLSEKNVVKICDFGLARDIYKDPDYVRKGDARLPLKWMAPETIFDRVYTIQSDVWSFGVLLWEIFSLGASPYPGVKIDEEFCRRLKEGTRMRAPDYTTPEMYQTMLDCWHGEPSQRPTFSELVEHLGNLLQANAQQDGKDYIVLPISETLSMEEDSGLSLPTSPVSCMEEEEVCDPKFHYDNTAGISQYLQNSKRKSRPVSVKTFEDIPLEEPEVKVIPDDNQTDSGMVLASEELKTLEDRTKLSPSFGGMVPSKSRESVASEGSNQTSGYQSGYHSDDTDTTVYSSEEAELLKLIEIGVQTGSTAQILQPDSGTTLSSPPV

[5] = target: T1, Epidermal growth factor receptor
[6] = target: T2, Vascular endothelial growth factor receptor 2
[7] = tested on: chorioallantoic membrane (Gallus gallus); experiment: cells; settings: Homo sapiens, A-431

Sequence of Platelet-derived growth factor receptor beta (P09619 whole entry): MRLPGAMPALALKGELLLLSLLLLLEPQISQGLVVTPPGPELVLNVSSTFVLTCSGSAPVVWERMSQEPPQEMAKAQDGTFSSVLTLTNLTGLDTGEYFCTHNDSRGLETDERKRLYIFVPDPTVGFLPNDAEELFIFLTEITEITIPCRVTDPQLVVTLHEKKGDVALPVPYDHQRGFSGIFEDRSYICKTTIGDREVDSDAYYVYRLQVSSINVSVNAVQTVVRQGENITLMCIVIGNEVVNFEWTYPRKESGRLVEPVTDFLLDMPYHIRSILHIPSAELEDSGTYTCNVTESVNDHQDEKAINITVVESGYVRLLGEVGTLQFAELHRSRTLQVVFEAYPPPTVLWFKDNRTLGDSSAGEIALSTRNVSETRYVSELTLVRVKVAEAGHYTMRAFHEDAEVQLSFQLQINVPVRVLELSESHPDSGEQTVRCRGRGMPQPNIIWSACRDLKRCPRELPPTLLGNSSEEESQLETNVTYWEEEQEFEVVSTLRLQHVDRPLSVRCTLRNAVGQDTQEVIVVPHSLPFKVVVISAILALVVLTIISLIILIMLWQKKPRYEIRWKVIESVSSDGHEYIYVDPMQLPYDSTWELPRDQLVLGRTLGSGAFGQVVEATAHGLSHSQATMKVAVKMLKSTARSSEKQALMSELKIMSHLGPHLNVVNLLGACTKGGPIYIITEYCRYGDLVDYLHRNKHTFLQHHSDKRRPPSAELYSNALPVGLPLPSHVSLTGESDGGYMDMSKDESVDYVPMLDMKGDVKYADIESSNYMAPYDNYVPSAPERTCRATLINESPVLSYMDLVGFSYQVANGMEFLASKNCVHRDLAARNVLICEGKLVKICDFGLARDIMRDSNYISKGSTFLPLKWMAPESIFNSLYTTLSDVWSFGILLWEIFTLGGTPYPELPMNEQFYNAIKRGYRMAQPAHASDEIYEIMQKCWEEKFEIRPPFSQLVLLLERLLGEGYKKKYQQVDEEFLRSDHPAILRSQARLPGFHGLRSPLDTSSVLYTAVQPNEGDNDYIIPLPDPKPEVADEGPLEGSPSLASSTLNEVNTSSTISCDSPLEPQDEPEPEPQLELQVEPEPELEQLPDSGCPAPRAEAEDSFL

Compound	IC50 [1]	IC50 (A-431)	IC50 [2]	IC50 [3]	IC50 [4]	IC50 [5]	IC50 [6]	IC50 [7]
Fc1ccc(Nc2ncnc3[nH]c(CCc4ccccc4)cc23)cc1C(F)(F)F	> 500 µM	> 500 µM	> 200 µM	164 µM	57.5 µM	–	–	–
C#Cc1cccc(Nc2ncnc3[nH]c(CCc4ccccc4)cc23)c1	> 500 µM	> 500 µM	> 200 µM	142 µM	49.4 µM	–	–	–
FC(F)(F)c1cccc(Nc2ncnc3[nH]c(CCc4ccccc4)cc23)c1	> 500 µM	> 500 µM	> 200 µM	> 200 µM	22.1 µM	–	–	–
Nc1nc(Nc2ccc(F)c(Br)c2)c2cc(CCc3ccccc3)[nH]c2n1	–	–	–	–	–	22.8 µM	132 µM	–
Nc1nc(Nc2cccc(Br)c2)c2cc(CCc3ccccc3)[nH]c2n1	–	–	–	–	–	–	–	19.5 µM

Now from value to compound, other results behind:

IC50 [1]	IC50 (A-431)	IC50 [2]	IC50 [3]	IC50 [4]	IC50 [5]	IC50 [6]	Compound	IC50 [7]
8.5 µM	> 500 µM	> 200 µM	129 µM	112 µM	–	–	Brc1cccc(Nc2ncnc3[nH]c(CCc4ccccc4)cc23)c1	–
> 500 µM	–	> 200 µM	> 200 µM	40.5 µM	–	–	Fc1cc(Cl)ccc1Nc1ncnc2[nH]c(CCc3ccccc3)cc12	–
192 µM	> 500 µM	> 200 µM	> 200 µM	25.2 µM	–	–	Fc1ccc(Nc2ncnc3[nH]c(CCc4ccccc4)cc23)cc1Br	–
104 µM	–	56.1 µM	224 µM	31.6 µM	–	–	c1ccc(CCc2cc3c(Nc4ccc5[nH]ccc5c4)ncnc3[nH]2)cc1	–
